The target of the test is T1, beta-lactamase (Escherichia coli, UniProt P62593, A182V/V82I).
T1 construct: HCV core N-terminal partial region (first 12 codons, about 36 nucleotides of core), then a 3-residue linker (Gly-Arg-Ala) and an added Met before His24 of the enzyme; expressed in transfected cells; host or cells: replicon-enhanced Huh-7 cells transfected with HCV replicon RNA encoding beta-lactamase
The test is described as follows: HCV replicon beta-lactamase assay: signal-to-background with clavulanic acid. Type of test: cell-based. The conditions noted are these: for Δ: 1.23 at 0.00 μM, Δ not defined; for S/B: 3.5 at 0.00 μM. On the procedure:
Clavulanic acid can be used to enhance the signal-to-background ratio from the beta-lactamase reporter system wherein, a larger signal to noise ratio facilitates detection of HCV replication inhibitors by better reflecting changes in the intracellular concentration of beta-lactamase.
Prior to use, frozen cells are thawed fresh in the morning of the assay or the day before and diluted in pre-warmed media to 40,000 cells/ml. Cell suspension (50 μl) is plated into 384-well micro-titer plates. The cells are allowed to recover for at least 6 hours at 37° C. in the plates before beginning an assay. 1 μl of 25 μM clavulanic acid in PBS and 0.25 μl of 500 μM test compounds in DMSO are added to the cells. The assay cell plates are then incubated for 24 hours at 37° C. To the assay plate, 10 μl of 6×CCF4/AM substrate in loading buffer is added with a Multidrop (Labsystems), and the plate incubated for 90 minutes at ambient temperature. The plate is then read from the bottom on a Teacn Spectrafluor Plus (340 nm excitation, 460 nm and 530 nm emissions).
In the example described below, clavulanic acid is present throughout the assay at a concentration that slightly reduces beta-lactamase activity instead of using it at high concentration that would complete inhibit beta-lactamase activity.
Table 2 provides results obtained using different concentrations of clavulanic acid and an HCV NS5B inhibitor.

For the molecule `O=C(O)[C@H]1/C(=C/CO)O[C@@H]2CC(=O)N21` [clavulanic acid], the Δ turned out to be 1.22 ([CA] 0.13 μM), 1.17 ([CA] 0.25 μM), 0.97 ([CA] 0.50 μM) and 0.81 ([CA] 1.00 μM). Also, the S/B amounted to 5.7 ([CA] 0.13 μM), 6.0 ([CA] 0.25 μM), 6.3 ([CA] 0.50 μM) and 5.4 ([CA] 1.00 μM).

The values above are taken from patent US7786287B2, “Hepatitis C virus assay systems” (priority 2002, dated 2010).
